Source: PubChem BioAssay (NCI)
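Step 1: Grow cells in 96-well plates. Step 2: Expose to compound for 48 hours at 5 concentrations. Step 3: Interpolate endpoints linearly; if unreached, use highest concentration. GI50 is the concentration that inhibits growth by half. At the TGI there is no net growth.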

How the values were obtained:
Experiment in all cases: DTP human tumour cell line panel, 48 h
[1] = test system: DU-145 prostate
[2] = test system: MCF7 breast
[3] = test system: K-562 leukemia
[4] = test system: SF-268 CNS
[5] = test system: MOLT-4 leukemia
[6] = test system: HOP-92 NSCLC
[7] = test system: 786-0 renal
[8] = test system: BT-549 breast
[9] = test system: NCI-H23 lung
[10] = test system: HS 578T breast
[11] = test system: NCI/ADR-RES ovarian
[12] = test system: NCI-H460 lung
[13] = test system: SF-295 CNS
[14] = test system: LOX IMVI melanoma
[15] = test system: MDA-MB-231 breast
[16] = test system: T-47D breast
[17] = test system: SK-MEL-5 melanoma
[18] = test system: OVCAR-4 ovarian
[19] = test system: OVCAR-5 ovarian
[20] = test system: KM12 colon
[21] = test system: RPMI-8226 leukemia
[22] = test system: HT29 colon
[23] = test system: SW-620 colon
[24] = test system: SK-MEL-2 melanoma
[25] = test system: SK-MEL-28 melanoma
[26] = test system: CAKI-1 renal
[27] = test system: HOP-62 NSCLC
[28] = test system: OVCAR-8 ovarian
[29] = test system: CCRF-CEM leukemia
[30] = test system: U251 CNS
[31] = test system: HL-60(TB) leukemia
[32] = test system: MDA-MB-468 breast
[33] = test system: HCT-15 colon
[34] = test system: M14 melanoma
[35] = test system: EKVX NSCLC
[36] = test system: PC-3 prostate
[37] = test system: UACC-62 melanoma
[38] = test system: A549 NSCLC
[39] = test system: SK-OV-3 ovarian
[40] = test system: COLO 205 colon
[41] = test system: UACC-257 melanoma
[42] = test system: NCI-H226 lung
[43] = test system: NCI-H522 lung
[44] = test system: IGROV1 ovarian
[45] = test system: SF-539 CNS
[46] = test system: OVCAR-3 ovarian
[47] = test system: SN12C renal
[48] = test system: SNB-19 CNS
[49] = test system: RXF 393 renal
[50] = test system: SNB-75 CNS
[51] = test system: A498 renal
[52] = test system: MDA-MB-435
[53] = test system: MALME-3M melanoma
[54] = test system: HCC-2998 colon
[55] = test system: TK-10 renal
[56] = test system: UO-31 renal
[57] = test system: ACHN renal
[58] = test system: HCT-116 colon

`CCCSc1nc(Nc2ccc(S(N)(=O)=O)cc2)c(C#N)c(-c2ccc(Cl)cc2)n1` showed a GI50 [1] of 12.2 µM, a TGI [1] of 97.1 µM and a GI50 [2] of 24.3 µM. The TGI [2] was greater than 100 µM, the GI50 [3] was 2.85 µM and the TGI [3] was greater than 100 µM. The GI50 [4] was 9 µM, the TGI [4] was greater than 100 µM and the GI50 [5] was 8.11 µM. The TGI [5] was greater than 100 µM, the GI50 [6] was 1.39 µM and the TGI [6] was 3.73 µM. The GI50 [7] was 1.98 µM, the TGI [7] was 4.06 µM and the GI50 [8] was 30.8 µM. For the same compound, the TGI [8] was greater than 100 µM, the GI50 [9] was 9.53 µM and the TGI [9] was 43 µM. For the same compound, the GI50 [10] was 2.59 µM, the TGI [10] was 8.09 µM and the GI50 [11] was 4.89 µM. For the same compound, the TGI [11] was 90.5 µM, the GI50 [12] was 3.85 µM and the TGI [12] was 22.4 µM. It also gave a GI50 [13] of 2.1 µM, a TGI [13] of 4.94 µM and a GI50 [14] of 1.82 µM. The TGI [14] was 3.55 µM, the GI50 [15] was 2.83 µM and the TGI [15] was 8.9 µM. The GI50 [16] was greater than 100 µM, the TGI [16] was greater than 100 µM and the GI50 [17] was 6.96 µM. The TGI [17] was greater than 100 µM, the GI50 [18] was 2.23 µM and the TGI [18] was 5.65 µM. It also gave a GI50 [19] of 8.78 µM, a TGI [19] greater than 100 µM and a GI50 [20] of 4.17 µM. It also gave a TGI [20] greater than 100 µM, a GI50 [21] of 3.14 µM and a TGI [21] greater than 100 µM. For the same compound, the GI50 [22] was 6.41 µM, the TGI [22] was greater than 100 µM and the GI50 [23] was 4.67 µM. The TGI [23] was 29.6 µM, the GI50 [24] was 13.8 µM and the TGI [24] was greater than 100 µM. For the same compound, the GI50 [25] was 36.1 µM, the TGI [25] was greater than 100 µM and the GI50 [26] was 1.94 µM. It also gave a TGI [26] of 4.8 µM, a GI50 [27] of 2.35 µM and a TGI [27] of 5.67 µM. It also gave a GI50 [28] of 3.42 µM, a TGI [28] of 16.1 µM and a GI50 [29] greater than 100 µM. The TGI [29] was greater than 100 µM, the GI50 [30] was 2.42 µM and the TGI [30] was 7.81 µM. For the same compound, the GI50 [31] was greater than 100 µM, the TGI [31] was greater than 100 µM and the GI50 [32] was 4.49 µM. It also gave a TGI [32] of 37.1 µM, a GI50 [33] of 2.92 µM and a TGI [33] greater than 100 µM. The GI50 [34] was 3.48 µM, the TGI [34] was 25.3 µM and the GI50 [35] was 9.38 µM. It also gave a TGI [35] greater than 100 µM, a GI50 [36] of 13.4 µM and a TGI [36] greater than 100 µM. The GI50 [37] was 5.11 µM, the TGI [37] was greater than 100 µM and the GI50 [38] was 3.62 µM. It also gave a TGI [38] greater than 100 µM, a GI50 [39] of 4.11 µM and a TGI [39] of 67.6 µM. It also gave a GI50 [40] of 9.54 µM, a TGI [40] greater than 100 µM and a GI50 [41] of 28.5 µM. It also gave a TGI [41] greater than 100 µM, a GI50 [42] of 2.6 µM and a TGI [42] of 8.66 µM. It also gave a GI50 [43] of 16.4 µM, a TGI [43] greater than 100 µM and a GI50 [44] of 6.03 µM. The TGI [44] was greater than 100 µM, the GI50 [45] was 2.57 µM and the TGI [45] was 10 µM. For the same compound, the GI50 [46] was 3.63 µM, the TGI [46] was 19.6 µM and the GI50 [47] was 2.39 µM. It also gave a TGI [47] of 7.5 µM, a GI50 [48] of 4.04 µM and a TGI [48] of 20.9 µM. The GI50 [49] was 2 µM, the TGI [49] was 4.63 µM and the GI50 [50] was 2.03 µM. For the same compound, the TGI [50] was 9.63 µM, the GI50 [51] was 1.78 µM and the TGI [51] was 4.31 µM. The GI50 [52] was 7.9 µM, the TGI [52] was greater than 100 µM and the GI50 [53] was 3.07 µM. For the same compound, the TGI [53] was 17.9 µM, the GI50 [54] was 4.2 µM and the TGI [54] was greater than 100 µM.
Work on `CCN(CC)c1ccnc(CNCCSC(c2ccccc2)(c2ccccc2)c2ccc(C)cc2)c1` yielded a GI50 [1] of 2.92 µM, a TGI [1] of 8.29 µM and a GI50 [2] of 1.38 µM. The TGI [2] was 2.85 µM, the GI50 [3] was 2.34 µM and the TGI [3] was 6.15 µM. The GI50 [4] was 3.35 µM, the TGI [4] was 13 µM and the GI50 [5] was 2.85 µM. For the same compound, the TGI [5] was 7.28 µM, the GI50 [6] was 1.62 µM and the TGI [6] was 5.87 µM. The GI50 [7] was 1.71 µM, the TGI [7] was 3.21 µM and the GI50 [8] was 1.9 µM. For the same compound, the TGI [8] was 5.46 µM, the GI50 [55] was 4.37 µM and the TGI [55] was 17 µM. For the same compound, the GI50 [9] was 1.7 µM, the TGI [9] was 3.27 µM and the GI50 [10] was 2.39 µM. For the same compound, the TGI [10] was 7.84 µM, the GI50 [12] was 1.98 µM and the TGI [12] was 3.79 µM. The GI50 [13] was 1.59 µM, the TGI [13] was 3.01 µM and the GI50 [14] was 1.67 µM. The TGI [14] was 3.09 µM, the GI50 [15] was 1.99 µM and the TGI [15] was 4.53 µM. It also gave a GI50 [16] of 2.5 µM, a TGI [16] of 9.04 µM and a GI50 [17] of 1.73 µM. For the same compound, the TGI [17] was 3.12 µM, the GI50 [18] was 3.7 µM and the TGI [18] was 14.5 µM. For the same compound, the GI50 [19] was 2.67 µM, the TGI [19] was 11.3 µM and the GI50 [20] was 2.33 µM. It also gave a TGI [20] of 5.79 µM, a GI50 [21] of 2.05 µM and a TGI [21] of 4.88 µM. It also gave a GI50 [22] of 1.91 µM, a TGI [22] of 4.01 µM and a GI50 [23] of 2.47 µM. It also gave a TGI [23] of 6.86 µM, a GI50 [56] of 2.66 µM and a TGI [56] of 12.7 µM. For the same compound, the GI50 [25] was 1.86 µM, the TGI [25] was 4.16 µM and the GI50 [26] was 3.11 µM. The TGI [26] was 12.8 µM, the GI50 [27] was 2.29 µM and the TGI [27] was 6.21 µM. The GI50 [28] was 2.49 µM, the TGI [28] was 6.12 µM and the GI50 [29] was 1.96 µM. For the same compound, the TGI [29] was 5.19 µM, the GI50 [30] was 2.14 µM and the TGI [30] was 6.02 µM. For the same compound, the GI50 [57] was 3.22 µM, the TGI [57] was 11.7 µM and the GI50 [31] was 2.22 µM. The TGI [31] was 4.52 µM, the GI50 [32] was 1.83 µM and the TGI [32] was 3.85 µM. For the same compound, the GI50 [33] was 1.67 µM, the TGI [33] was 3.15 µM and the GI50 [34] was 1.84 µM. For the same compound, the TGI [34] was 3.68 µM, the GI50 [58] was 1.67 µM and the TGI [58] was 3.18 µM. For the same compound, the GI50 [35] was 1.78 µM, the TGI [35] was 3.97 µM and the GI50 [36] was 2.27 µM. For the same compound, the TGI [36] was 7.77 µM, the GI50 [37] was 2.64 µM and the TGI [37] was 8.33 µM. For the same compound, the GI50 [38] was 4.98 µM, the TGI [38] was 20.6 µM and the GI50 [39] was 3.31 µM. It also gave a TGI [39] of 11.5 µM, a GI50 [40] of 1.84 µM and a TGI [40] of 3.39 µM. For the same compound, the GI50 [41] was 3.52 µM, the TGI [41] was 11.8 µM and the GI50 [42] was 4.45 µM. The TGI [42] was 20.4 µM, the GI50 [43] was 2.27 µM and the TGI [43] was 5.61 µM. For the same compound, the GI50 [44] was 3.21 µM, the TGI [44] was 12.3 µM and the GI50 [45] was 1.87 µM. For the same compound, the TGI [45] was 3.52 µM, the GI50 [46] was 2.21 µM and the TGI [46] was 5.07 µM. It also gave a GI50 [47] of 2.4 µM, a TGI [47] of 6.29 µM and a GI50 [48] of 3.13 µM. For the same compound, the TGI [48] was 12 µM, the GI50 [49] was 2.23 µM and the TGI [49] was 7.24 µM. It also gave a GI50 [50] of 2.87 µM, a TGI [50] of 14.1 µM and a GI50 [51] of 12.4 µM. For the same compound, the TGI [51] was 27.4 µM, the GI50 [52] was 2.26 µM and the TGI [52] was 5.38 µM. It also gave a GI50 [53] of 1.68 µM, a TGI [53] of 3.13 µM and a GI50 [54] of 1.69 µM. The TGI [54] was 3.07 µM.
